The source of these data is patent US10919943B2, “Mutant proteins enabling agrochemical control of plant gene expression” (The Regents of the University of California, priority 2016, dated 2021).

The test system of the test is 35S::GFP-cyt-HAB1* and 35S::nuc-PYR1*^-MANDI. As to the kind of experiment: Mandipropamid control of protein nuclear localization, transient co-expression, confocal microscopy. Format: in vivo, N. benthamiana. To be noted: 50 μM mandipropamid, 24 hours; FIG. 13. An excerpt:
To test this idea, we created a nuclear localized version of PYR1*^-MANDI (SEQ ID NO:32) and a cytoplasmically localized GFP-HAB1*(SEQ ID NO:33), co-expressed the two components in N. benthamiana, and subsequently examined the localization of GFP-HAB1* in response to mandipropamid using confocal microscopy. To accomplish this, we cloned PYR1*^-MANDI into the yeast two hybrid vector pAD, generating a GAL4 activation domain fusion to PYR1*^-MANDI. The GAL4 activation domain present in pAD contains a synthetic SV40 nuclear localization signal (NLS) at its N-terminus. […]
To characterize these components, 35S::GFP-cyt-HAB1* and 35S::nuc-PYR1*^-MANDI were transiently co-expressed in N. benthamiana, as described above, and plants treated with a mock or mandipropamid solution (FIG. 13). […] The leaf tissue was scanned manually by epi-fluorescence to identify patches of GFP^+ cells and then observed by spinning disk confocal microscopy, collecting ˜10 micron deep sections that spanned the entire epidermal cell layer. […] Fluorescence imaging was done using a custom built spinning disk system (Solamere Technology, Inc) with a Yokagawa W1 spinning disk (Yokagawa), EM-CCD camera (Hamamatsu 9100c) and a Nikon Eclipse TE (Nikon) inverted stand. […]

Take `C#CCOc1ccc(CCNC(=O)C(OCC#C)c2ccc(Cl)cc2)cc1OC` (stereo not shown) [mandipropamid]: the “localization of GFP-cyt-HAB1*” value is on record as “predominantly nuclear localization pattern”.
